In article PMC12903969, “Discovery of a Novel and Potent Kir4.1 Inhibitor as a Safe and Rapid‐Onset Antidepressant Agent in Mice” (Advanced Science, 2025) one finds inhibition and IC50 data, which are given here for 16 compounds.

The structures appear in SMILES notation. Read-outs that look alike come from different tables or passages of the source.

What is called inhibition is the relative decrease from the control value, in per cent. Usually IC50 stands for the point on the concentration scale where inhibition reaches its midpoint.

Assay [1] addresses T1, Kir4.1 (Homo sapiens, UniProt P78508).
T1 construct: host or cells: CHO-K1
T1 sequence (P78508 1-379): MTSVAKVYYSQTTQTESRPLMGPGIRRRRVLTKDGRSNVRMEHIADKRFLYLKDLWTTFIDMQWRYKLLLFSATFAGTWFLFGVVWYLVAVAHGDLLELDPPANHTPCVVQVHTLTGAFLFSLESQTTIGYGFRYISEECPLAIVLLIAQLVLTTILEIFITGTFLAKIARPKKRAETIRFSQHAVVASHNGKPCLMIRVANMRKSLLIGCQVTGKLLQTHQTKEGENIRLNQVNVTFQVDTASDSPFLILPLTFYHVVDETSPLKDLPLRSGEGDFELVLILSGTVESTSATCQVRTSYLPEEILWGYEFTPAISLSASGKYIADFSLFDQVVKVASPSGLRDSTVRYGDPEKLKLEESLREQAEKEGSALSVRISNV
The assay can be described thus: Whole-cell patch clamp, Kir4.1 currents in transfected CHO-K1 cells. In kind it is cell-based. To be noted: for inhibition at 1 µM: CHO-K1, 1 μM; for inhibition at 10 µM: CHO-K1, 10 μM; for inhibition at 0.5 µM: CHO-K1, 0.5 μM. The protocol: Plasmids encoding WT human potassium channels Kir1.1, Kir2.1, Kir2.2, Kir4.1, and Kir4.2 were obtained from the Beijing Genomics Institute. All point mutations were constructed using the QuickChange II Site‐Directed Mutagenesis Kit (Stratagene) and subsequently verified by sequencing.
CHO‐K1 cells were maintained in DMEM/F12 growth medium containing 10% fetal bovine serum. Plasmids encoding the target genes (3600 ng) and enhanced green fluorescent protein (400 ng) were cotransfected into cells using Lipofectamine 2000 (Invitrogen) in accordance with the manufacturer's instructions. Cells were seeded onto poly‐d‐lysine (PDL)‐coated glass coverslips 1 h prior to electrophysiological recordings. All cells were cultured under standard conditions of 5% CO2 at 37 °C.
Whole‐cell patch‐clamp recordings were obtained either in transiently transfected CHO‐K1 cells or in primary cultured astrocytes at room temperature using standard patch‐clamp techniques with an Axopatch‐700B amplifier (Axon Instruments). The signals were filtered at 2 kHz and sampled at 20 kHz using the Digidata 1440A interface (Axon Instruments). The resistance of borosilicate glass pipettes was typically 2–4 MΩ when filled with the internal solution. Drug application was facilitated using a BPS perfusion system (ALA Scientific Instruments). Macroscopic currents generated by expressed potassium channels were recorded under the voltage‐clamp conditions with an internal pipette solution composed of (in mM): 140 KCl, 5 NaCl, 1 CaCl2, 1 MgCl2, 10 HEPES, and 10 EGTA, pH 7.2 adjusted with KOH. The external solution contained (in mM): 140 NaCl, 5 KCl, 2 CaCl2, 1 MgCl2, 10 glucose, and 10 HEPES, pH 7.4 adjusted with NaOH. Currents were elicited with a hyperpolarized voltage at −120 mV from the holding potential of −80 mV, followed by a ramp voltage depolarizing to +50 mV. Astrocytic resting membrane potentials were recorded under current‐clamp conditions (I = 0 pA) using standard internal and external solutions, determined immediately after achieving whole‐cell mode.
For orientation: In patch-clamp work, channel activity is measured electrically.

In assay [2] the test system is MDA-MB-468 breast cancer cells. As to the kind of experiment: Cytotoxicity test (CCK-8). In kind it is cell-based. To be noted: Homo sapiens, MDA-MB-468, MDA-MB-468 breast cancer cells; read-out: IC50 ± SD (μM) for MDA-MB-468 Inhibition. The protocol: Cytotoxicity of all the tested compounds was determined using the cell counting kit‐8 (CCK‐8) assay kit (Beyotime, Shanghai, China). Briefly, MDA‐MB‐468 was cultured in L15 medium and plated in 96‐well plates at a density of 12,000 cells per well for 24 h at 37 °C in a 5% CO2 incubator. The tested compounds were dissolved in DMSO and diluted with culture medium (DMSO final concentration < 0.4%). Then the cells were treated with compounds (0.41, 1.23, 3.70, 11.11, 33.33, 100.00 µM) for 48 h. After treatments, removal of the supernatant liquor, 100 µL of new media diluted CCK‐8 solution (10% CCK‐8) was added into each well and incubated at 37 °C for 2 h. The absorbance of the mixture was directly measured at 450 nm. The results are presented as a percentage of the control.

Setting [3] is: +50 mV, read-out: Kir4.1 Inhibition ± SD (%) at 1 μM, +50 mV.
Setting [4] is: -120 mV, read-out: Kir4.1 Inhibition ± SD (%) at 1 μM, -120 mV.
The mark [5] stands for this setting: +50 mV, read-out: Kir4.1 Inhibition ± SD (%) at 10 μM, +50 mV.
The mark [6] stands for this setting: -120 mV, read-out: Kir4.1 Inhibition ± SD (%) at 10 μM, -120 mV.

For the compound `c1ccc2c(c1)oc1ccc(NC3CC4(CCN(CCCN5CCOCC5)CC4)C3)cc12` [JX3228, N-(dibenzo[b,d]furan-2-yl)-7-(3-morpholinopropyl)-7-azaspiro[3.5]nonan-2-amine], the results for the inhibition at 1 µM in assay [1] (setting [3]) and in assay [1] (setting [4]) were 18.4 ± 3.79% and 0.88 ± 2.32%, respectively. For the same compound, the inhibition at 10 µM in assay [1] (setting [5]) was determined as 73 ± 3.72%; in assay [1] (setting [6]), 17.1 ± 6.3%. Moreover, in assay [2], the IC50 came to 11.2 ± 0.74 µM.
Take `c1ccc2c(c1)oc1ccc(N3CCC4(CC3)CN(CCCN3CCOCC3)C4)cc12` [JX3229, 4-(3-(7-(dibenzo[b,d]furan-2-yl)-2,7-diazaspiro[3.5]nonan-2-yl)propyl)morpholine]: the inhibition at 10 µM in assay [1] (setting [5]) is 26.8 ± 9.64%; in assay [1] (setting [6]), 4.9 ± 7.34%. Also, the concentration for half-maximal inhibition (IC50) in assay [2] was 29.5 ± 1.09 µM.
In the case of `c1ccc2c(c1)oc1ccc(N3CCC4(CCN(CCCN5CCOCC5)CC4)CC3)cc12` [JX3230, 4-(3-(9-(dibenzo[b,d]furan-2-yl)-3,9-diazaspiro[5.5]undecan-3-yl)propyl)morpholine], the results for the inhibition at 10 µM in assay [1] (setting [5]) and in assay [1] (setting [6]) were 63.3 ± 6.48% and 15.6 ± 0.73%, respectively. In assay [2], the half-inhibitory concentration (IC50) is over 50 µM.
In the case of `c1ccc2c(c1)oc1ccc(Nc3ccnc(OCCCN4CCOCC4)n3)cc12` [JX3231, N-(dibenzo[b,d]furan-2-yl)-2-(3-morpholinopropoxy)pyrimidin-4-amine], the inhibition at 1 µM was 7.39 ± 3.45% in assay [1] (setting [3]) and 4.14 ± 5.52% in assay [1] (setting [4]). Besides, the inhibition at 10 µM in assay [1] (setting [5]) came to 96.3 ± 1.23%; in assay [1] (setting [6]), 90.5 ± 2.35%. The half-maximal inhibitory concentration (IC50) in assay [2] was determined as 19.7 ± 0.5 µM.
In the case of `CN(CCCN1CCOCC1)c1nccc(Nc2ccc3oc4ccccc4c3c2)n1` [JX3232, N^4-(dibenzo[b,d]furan-2-yl)-N^2-methyl-N^2-(3-morpholinopropyl)pyrimidine-2,4-diamine], the inhibition at 1 µM in assay [1] (setting [3]) was 6.81 ± 4.5%; in assay [1] (setting [4]) it was -2.25 ± 0.47%. In addition, the inhibition at 10 µM in assay [1] (setting [5]) is 96.94 ± 0.69%; in assay [1] (setting [6]) it was 93.2 ± 1.48%. The half-inhibitory concentration (IC50) in assay [2] came to 6.77 ± 0.68 µM.
In the same order, the values of `CC(CNc1nccc(Nc2ccc3oc4ccccc4c3c2)n1)CN1CCOCC1` (stereo not drawn) [JX3233, N^4-(dibenzo[b,d]furan-2-yl)-N^2-(2-methyl-3-morpholinopropyl)pyrimidine-2,4-diamine] are 4.34 ± 8.43%, 2.58 ± 3.95%, 92.2 ± 1.15%, 97.2 ± 1.69% and 10.44 ± 0.01 µM.
With `OC(CNc1nccc(Nc2ccc3oc4ccccc4c3c2)n1)CN1CCOCC1` (stereo not drawn) [JX3234, 1-((4-(dibenzo[b,d]furan-2-ylamino)pyrimidin-2-yl)amino)-3-morpholinopropan-2-ol], the inhibition at 1 µM in assay [1] (setting [3]) turned out to be 11.2 ± 5.26%; in assay [1] (setting [4]), 5.91 ± 6.31%. Moreover, the inhibition at 10 µM came to 94.83 ± 0.75% in assay [1] (setting [5]) and 88.4 ± 2.42% in assay [1] (setting [6]). In assay [2], the IC50 turned out to be 17.1 ± 0.83 µM.
For `c1ccc2c(c1)oc1ccc(Nc3ccnc(NCC4(CN5CCOCC5)CC4)n3)cc12` [JX3235, N^4-(dibenzo[b,d]furan-2-yl)-N^2-((1-(morpholinomethyl)cyclopropyl)methyl)pyrimidine-2,4-diamine], the inhibition at 1 µM in assay [1] (setting [3]) was determined as 10.8 ± 2.21%; in assay [1] (setting [4]), 6.83 ± 3.85%. Moreover, the inhibition at 10 µM in assay [1] (setting [5]) came to 92.4 ± 3.68%; in assay [1] (setting [6]), 85.4 ± 5.46%. The IC50 in assay [2] is 11.3 ± 0.32 µM.
`O=C(NCCNc1nccc(Nc2ccc3oc4ccccc4c3c2)n1)N1CCOCC1` [JX3236, N-(2-((4-(dibenzo[b,d]furan-2-ylamino)pyrimidin-2-yl)amino)ethyl)morpholine-4-carboxamide]: the inhibition at 1 µM in assay [1] (setting [3]) was 5 ± 5.21%; in assay [1] (setting [4]), -4.25 ± 7.82%. The results for the inhibition at 10 µM in assay [1] (setting [5]) and in assay [1] (setting [6]) were 89.24 ± 0.5% and 70.8 ± 2.5%, respectively. Further, the concentration for half-maximal inhibition (IC50) in assay [2] is 21.9 ± 1.01 µM.
For `CC(C)(C)OC(=O)NCCCNc1nccc(Nc2ccc3oc4ccccc4c3c2)n1` [JX3237, tert-butyl (3-((4-(dibenzo[b,d]furan-2-ylamino)pyrimidin-2-yl)amino)propyl)carbamate] the same measures were 12.5 ± 7.25%, 7.65 ± 4.73%, 89.1 ± 3.59%, 73.8 ± 0.93% and 4.84 ± 0.06 µM.
In the same order, the values of `CCN(CC)CCCNc1nccc(Nc2ccc3oc4ccccc4c3c2)n1` [JX3238, N^4-(dibenzo[b,d]furan-2-yl)-N^2-(3-(diethylamino)propyl)pyrimidine-2,4-diamine] are 27 ± 12.3%, 2.21 ± 3.14%, 98.5 ± 0.23%, 93.1 ± 2.15% and 10.3 ± 3.8 µM.
For `c1ccc2c(c1)oc1ccc(Nc3ccnc(NCCCN4CCCC4)n3)cc12` [JX3239, N^4-(dibenzo[b,d]furan-2-yl)-N^2-(3-(pyrrolidin-1-yl)propyl)pyrimidine-2,4-diamine] the same measures were 53.2 ± 3.51%, 36.4 ± 5.31%, 96 ± 2.25%, 90.9 ± 4.5% and 11.1 ± 0.81 µM.
Regarding `CC1(C)C2CN(CCCNc3nccc(Nc4ccc5oc6ccccc6c5c4)n3)CC21` (stereo not drawn) [JX3240, N^4-(dibenzo[b,d]furan-2-yl)-N^2-(3-(6,6-dimethyl-3-azabicyclo[3.1.0]hexan-3-yl)propyl)pyrimidine-2,4-diamine], the inhibition at 0.5 µM in assay [1] (+50 mV, read-out: Kir4.1 Inhibition ± SD (%) at 0.5 μM, +50 mV) is -0.92 ± 3.58%; in assay [1] (-120 mV, read-out: Kir4.1 Inhibition ± SD (%) at 0.5 μM, -120 mV) it was -0.29 ± 1.05%. Also, the inhibition at 1 µM turned out to be 90 ± 1.44% in assay [1] (setting [3]) and 84.7 ± 4.13% in assay [1] (setting [4]). Besides, the results for the inhibition at 10 µM in assay [1] (setting [5]) and in assay [1] (setting [6]) were 97.46 ± 0.83% and 97.35 ± 0.65%, respectively. For the same compound, the half-maximal inhibitory concentration (IC50) in assay [2] is 5.37 ± 0.22 µM.
Consider `O=C(NCCCNc1nccc(Nc2ccc3oc4ccccc4c3c2)n1)N1CCOCC1` [JX3241, N-(3-((4-(dibenzo[b,d]furan-2-ylamino)pyrimidin-2-yl)amino)propyl)morpholine-4-carboxamide], for which the inhibition at 1 µM in assay [1] (setting [3]) is 4.09 ± 2.08%; in assay [1] (setting [4]), 1.97 ± 2.44%. Besides, the figures for the inhibition at 10 µM in assay [1] (setting [5]) and in assay [1] (setting [6]) were 84.2 ± 2.69% and 59.5 ± 3.66%, respectively. Also, in assay [2], the IC50 is 21.1 ± 1.53 µM.
For `C[C@@H]1CN(CCCNc2nccc(Nc3ccc4oc5ccccc5c4c3)n2)C[C@H](C)O1` [JX3242, N^4-(dibenzo[b,d]furan-2-yl)-N^2-(3-((2S,6R)-2,6-dimethylmorpholino)propyl)pyrimidine-2,4-diamine] the same measures were -0.93 ± 7.76%, -3.38 ± 9.3%, 97.5 ± 1.92%, 94.2 ± 1.77% and 5.38 ± 0.11 µM.
In the same order, the values of `c1ccc2c(c1)oc1ccc(Nc3ccnc(NCCCN4CCSCC4)n3)cc12` [JX3243, N^4-(dibenzo[b,d]furan-2-yl)-N^2-(3-thiomorpholinopropyl)pyrimidine-2,4-diamine] are -1.39 ± 1.64%, 0.17 ± 1.63%, 98.74 ± 0.36%, 98.6 ± 0.56% and 7.11 ± 0.62 µM.
